For one assay, the system named is MDA-MB-231 cells. Put plainly: Microarray analysis of mRNA and RT-PCR of DNA repair genes. The class given is cell-based. The settings on record: 500 nM, 24 h; confirmed by RT-PCR. The protocol:
MDA-MB-231 cells were grown in DMEM with 10% of FBS, and when 70% confluent, cells were treated with 500 nM Formula (III) for 24 h. Total RNA was extracted and purified using the RNeasy Mini Kit (Qiagen). Double-stranded cDNA and biotinylated cRNA were synthesized using a T7-polyT primer and the BioArray RNA labeling kit (Enzo Life Sciences, Farmingdale, N.Y.), respectively. The labeled RNA was fragmented and hybridized to human oligonucleotide arrays (Human Gene ST Arrays) (Affymetrix, Santa Clara, Calif.) according to manufacturers instructions. For the microarray data analysis, Affymetrix CEL files from each of the two microarray hybridization experiments for the two conditions [untreated control and treated with 500 nM Formula (III)] were imported into the dChip software (Dana Farber Cancer Institute, Boston, Mass.). […] The list of genes was analyzed using functional annotation bioinformatics microarray analysis (DAVID), and gene set enrichment analyses (GSEA). […]
Total RNA was extracted from cells with Rneasy Mini Kit (QIAGEN) as recommended by the supplier. cDNAs were synthesized from […] of total RNA by using RevertAid H Minus First Strand cDNA synthesis Kit (Fermentas) in a total volume of […]. […] Samples were analyzed in triplicate and mRNA expression was normalized to GADPH […] and quantified by the comparative cycle threshold (Ct) method. […]

For assay [1], the system named is tyrosine and serine/threonine kinases. Put plainly: Biochemical kinase assays.

These results are taken from patent US9808469B2, “Antitumor activity of multi-kinase inhibitors in triple negative breast cancer” (ENTRECHEM, S.L, priority 2014, dated 2017).

Consider `C[C@]12O[C@H](C[C@@H](O)[C@H]1O)n1c3ccccc3c3c4c(c5c6ccccc6n2c5c31)C(=O)NC4=O` [Formula (III)], for which, in the assay on MDA-MB-231 cells, the “expression of genes involved in DNA repair” value is on record as “increased expression of genes involved in DNA repair”. Also, the “concentration range of kinase affinity and inhibition” value in assay [1] was “nanomolar and subnanomolar range”.
